Like-named read-outs stand apart in the source and are kept apart here.
Experiments:
[1] = test system: Diplocladon sp. 1 star-worm luciferase, wild type, SEQ ID NO: 1; test: Km determination for star-worm luciferase (luminescence kinetics); assay type: biochemical; conditions: 0.1 M Tris-HCl pH 8.0, 8 mM MgSO4
Protocol: The measurements were carried out ten times for each sample, and the average of absorbance was used for the calculation.
A solution of 0.1 M Tris-HCl (pH 8.0) containing each purified luciferase, 4 mM of ATP, and 8 mM of MgSO4 was connected to the standard pump of a luminometer, and measurement was carried out at the same time of adding 50 μl of the solution to the well. A Luminescensor (ATTO) was used for the measurement. Measurement was repeated three times for each luciferin concentration.
The peak intensity of the obtained photon count value was plotted with respect to luciferin concentration S, defining the initial rate as V. The plots were subjected to curve fitting of Michaelis Menten type, thereby giving Km values. The curve fitting was performed by a nonlinear least-squares method, and search of parameter was performed by a Newton method.
Measurement of Km Value with Respect to ATP
Under various ATP concentrations, the luminous intensity of the obtained luciferase was measured. Based on the results, Km values was determined with respect to ATP.
Various eight types of ATP solutions were prepared by adding ATP to 0.1 M Tris-HCl (pH 8.0). These solutions contain ATP at final concentration of 10, 20, 40, 80, 160, 320, 480, or 640 μM. These ATP solutions were each injected into a 96-well microplate at a volume of 50 μl. […]

[2] = test system: CBR luciferase derived from click beetle; test: Km determination for known luciferase CBR (luminescence kinetics); assay type: biochemical; conditions: 0.1 M Tris-HCl pH 8.0; enzyme solution with 1 mM D-luciferin, 8 mM MgSO4; read-out: Km for ATP
HeLa cell = test: Luminous intensity expressed in HeLa cell, star-worm luciferase vs P. pyralis luciferase (Example 3); assay type: cell-based; conditions: 2 mM D-luciferin, 25° C., 90 minutes, normalised to sea pansy luciferase internal control, codon-optimized gene with Kozak sequence
Protocol: The luminous intensities when expressed in a HeLa cell were compared between a star-worm luciferase and P. pyralis luciferase.
Regarding a star-worm luciferase, Kozak sequence was added to a nucleic acid optimized for expression in a mammalian cell and then inserted into between SgfI site and PmeI site of a multicloning site of pF9A CMV hRLuc neo Flexi vector (Promega). According to addition of Kozak sequence, an amino acid encoded by the codon immediately after initiation codon, proline, was changed to alanine. […] For the purpose of comparison, Kozak sequence was added to a known P. pyralis nucleic acid containing an optimized gene for expression in a mammalian cell, and then inserted into apF9A CMV hRLuc neo Flexi vector in a similar manner.
Each of the two types of plasmids obtained by the aforementioned manner was introduced into HeLa cells by means of lipofection method, and 24 hours later the cells were washed with PBS. […] According to the figure, the star-worm luciferase induced luminescence having 1.5 times the luminous intensity in a HeLa cell of that induced by P. Pyralis luciferase.

Nc1ncnc2c1ncn2[C@@H]1O[C@H](COP(=O)(O)OP(=O)(O)OP(=O)(O)O)[C@@H](O)[C@H]1O [ATP, Adenosine triphosphate]
Km ([1]; enzyme solution with 1 mM D-luciferin, read-out: Km for ATP): 110 µM
Km [2]: 47 µM

O=C(O)[C@H]1CSC(c2nc3ccc(O)cc3s2)=N1 [D-luciferin]
Km ([1]; read-out: Km for D-luciferin, enzyme solution with 4 mM ATP): 38.9 µM

B1: star-worm luciferase: Novel luciferase cloned from star-worm Diplocladon sp. 1, amino acid sequence SEQ ID NO: 1 (protein, listed as Diplocladon sp.)
chain: MPNEIVLHGAKPRDPLDLGTAGSQLFRSLTQFSYLREALVDAHTEQVVSYADILENSCRLAICFEKYGLRQNSVIAVCSENSAIFFYPVIAALYMGIITATVNDNYTERELFDTLNISKPELVFCSKKAIKNLTQLKNHIDFIKKLVVLDSDEDIGEVESLANFMKRYSESVIDVRNFKPRDFDAKEQVALIMSSSGTTGLPKGVVLTHRNLSVRFVHCKDPLFGTRTVPSTSILSIVPFHHAFGMFTTLSYFIVGLRVILLKRFEEEFFLSTIEKYRIPTIVLAPPVMVFLAKSPLVDQYDVSSIREVATGGAPVGIEVAEAVAKRLKINGILQGYGLTETCCAVLITPHDHVKTGSTGKVAPYVQAKVVDLSTGKSLGPNKRGELCFKSEIIMKGYFNNIKATEEAIDKEGWLHSGDVGYYDEDGHFYVVDRLKELIKYKGYQVAPAELEWLLLQHPAIKDAGVTGVPDEAAGELPGACIVLEEGHSLTEQEVIEYVAERVSPTKRIRGGVVFVDDIPKGATGKLVRSELRRMLSQKKSKL
luminous intensity relative to that induced by P. pyralis firefly luciferase (HeLa cell): 1.5 times

— patent US9234186B2, “Star-worm luciferase” (OLYMPUS CORPORATION, priority 2011, dated 2016)
